Ends that are not written are not given here.
How the values were obtained:
[1] = system: mCherry fluorescent-expressing 4T1 cells; assay: Orthotopic allograft of mCherry 4T1 cells in BALB/c mice; type: in vivo, mouse; conditions: 40 mg/kg peptide every day, intraperitoneal
Description: For the animal model, MB‐Luc2 cells were mixed with human BCAFs xenografts: 1 × 10^5 MB‐Luc2 were mixed with either 1 × 10^5 BCAFs carrying a control knockdown vector (shCtl‐BCAFs), or 1 × 10^5 BCAFs carrying a CEBPD knockdown vector (shCD‐BCAFs), or 1 × 10^5 BCAFs carrying a PTX3 knockdown vector (shP‐BCAFs). The cell mixtures were inoculated into the mammary fat pads of NOD‐SCID mice. In peptide treatment experiments, NOD‐SCID mice were orthotopically inoculated with 1 × 10^6 mCherry fluorescent‐expressing MDA‐MB‐231 cells into the mammary fat pad. Similarly, 5 × 10^5 mCherry fluorescent‐expressing 4T1 cells were orthotopically inoculated into BALB/c mice in the mammary fat pad. Once tumours reached to the mean of 50 mm^3, the mice were administered 40 mg/kg of peptides RI37, GI40, P2rdAD9 or P12rdGR9 every day by intraperitoneal injection. For paclitaxel treatment, 30 mg/kg of paclitaxel was administered to the experimental mice once a week. […] The images of in vivo bioluminescence and metastasis quantification of the lung and brain were analysed by a Xenogen IVISR Spectrum Noninvasive Quantitative Molecular Imaging System. […] After that, tumour volume was mathematically determined by using the standard formula: […], where l represents the length and w represents the width of the tumour. […] After, the number of nodules on the lung surface was measured. […]

[2] = system: AKT, NF-κB and ERK1/2 activity in MDA-MB-231 cells; assay: Western blot of PTX3-induced signalling; type: cell-based, human; conditions: with PTX3 treatment
Description: Experimental cells were lysed with radioimmunoprecipitation assay buffer (RIPA) buffer. Specific antibodies including PTX3 (ab90806; Abcam), CEBPD (sc‐636; Santa Cruz Biotechnology), CD44 (GTX83114; GeneTex), α‐tubulin (T6199; Sigma), P84 (GTX70220; GeneTex), RAC1 (GTX100761; GeneTex), CDC42 (GTX100904; GeneTex), AKT (GTX121937; GeneTex), Phospho‐AKT (Ser473) (GTX128414; GeneTex), Phospho‐NF‐κB p65 (Ser536) (#93H1; Cell Signaling), RhoA (ab68826; Abcam), NF‐κB p65 (#3033; Cell Signaling), Phospho‐p38 MAPK (Thr180/Tyr182) (#9211; Cell Signaling), PTEN (ab32199; Abcam), p38 MAPK (#9212; Cell Signaling), Phospho‐SAPK/JNK (Thr183/Tyr185) (#4668; Cell Signaling), Phospho‐p70 S6 Kinase (Thr389) (MABS82; Millipore), Phospho‐PAK1 (Ser199/Ser204) (09‐258; Millipore), SAPK/JNK (#9252; Cell Signaling), Phospho‐p44/42 MAPK (ERK1/2) (Thr202/Tyr204) (#4377; Cell Signaling) and p44/42 MAPK (ERK1/2) (#9102; Cell Signaling) were used for Western blotting.

[3] = system: RANKL, MMP2, NANOG and TWIST2 transcription in MDA-MB-231 cells; assay: Real-time quantitative PCR of PTX3-induced genes; type: cell-based, human; conditions: MDA-MB-231 cells, with PTX3 treatment
Description: TRIsure RNA extraction reagent (Invitrogen) extracted total RNA. SuperScript™ III Reverse Transcriptase (Invitrogen) was used to synthesis cDNA. Next, SensiFAST™ SYBR (BIOLINE) was applied to perform real‐time quantitative PCR (Q‐PCR) assay. CFX connect Real‐Time PCR System (BIO‐RAD) executed real‐time fluorescence monitoring and the melting curve analysis according to the manufacturer's recommendations. The following pairs of specific primers—human CEBPD (F): 5′‐[…]‐3′ and CEBPD (R): 5′‐[…]‐3′, human PTX3 (F): 5′‐ […]‐3′ and PTX3 (R): 5′‐ […]‐3′, human MMP2 (F): 5′‐ […]‐3′ and MMP2 (R): 5′‐ […]‐3′, human RANKL (F): 5′‐ AGAGC GCAGATGGATCCTAA‐3′ and RANKL (R): 5′‐ TTCCTTTTGCACAGC TCCTT‐3′, human TWIST2 (F): 5′‐[…]‐3′ and TWIST2 (R): 5′‐[…]‐3′, human NANOG (F): 5′‐[…]‐3′ and NANOG (R): 5′‐ […]‐3′, human GAPDH (F): 5′‐ […]‐3′ and GAPDH (R): 5′‐ […]‐3′.

GI40: peptide, PTX3 amino acids 320–359 (GGGFDETLAFSGRLTGFNIWDSVLSNEEIRETGGAESCHI; also: biotin, position not given here)
suppressed: tumour growth and metastasis [1] | PTX3-induced AKT, NF-κB and ERK1/2 activity (signalling pathways) [2] | PTX3-induced transcription of RANKL, MMP2, NANOG and TWIST2 [3]

RI37: peptide, PTX3 amino acids 200–236 (RPMRLESFSACIWVKATDVLNKTILFSYGTKRNPYEI; also: biotin, position not given here)
suppressed: tumour growth and metastasis [1] | PTX3-induced AKT, NF-κB and ERK1/2 activity (signalling pathways) [2] | PTX3-induced transcription of RANKL, MMP2, NANOG and TWIST2 [3]

From PMC8797470, “Disruption of the pentraxin 3/CD44 interaction as an efficient therapy for triple‐negative breast cancers” (Clinical and Translational Medicine, 2022)
